Data: publication PMC5218480 (PLoS ONE, 2017)

Tested on: MV-4-11 cells
Assay: Gene expression microarray analysis (Affymetrix PrimeView) and GSEA
Type: cell-based, human
Set-up: RFU PODN (11730768_x_at) / Fold change /veh PODN (11730768_x_at) / RFU LINC00158 (11744669_a_at) / Fold change /veh LINC00158 (11744669_a_at) / RFU DUSP10 (11751237_a_at) / Fold change /veh DUSP10 (11751237_a_at) / RFU ID3 (11757404_x_at) / Fold change /veh ID3 (11757404_x_at) / RFU PLEKHG5 (11737974_s_at) / Fold change /veh PLEKHG5 (11737974_s_at) / RFU LRRC4B (11730491_at) / Fold change /veh LRRC4B (11730491_at) / RFU GIMAP4 (11747438_a_at) / Fold change /veh GIMAP4 (11747438_a_at) / RFU KRT8 (11758183_x_at) / Fold change /veh KRT8 (11758183_x_at) / RFU CNN1 (11734310_a_at) / Fold change /veh CNN1 (11734310_a_at) / RFU VPS37D (11726825_at) / Fold change /veh VPS37D (11726825_at) / RFU C10orf10 (11716522_x_at) / Fold change /veh C10orf10 (11716522_x_at) / RFU KIR2DL2 /// KIR2DL4 /// KIR2DL5A /// KIR2DL5B /// KIR2DS1 /// KIR2DS2 /// KIR2DS3 /// KIR2DS4 /// KIR3DL3 /// KIR3DL3 /// KIR3DS1 (11738374_at) / Fold change /veh KIR2DL2 /// KIR2DL4 /// KIR2DL5A /// KIR2DL5B /// KIR2DS1 /// KIR2DS2 /// KIR2DS3 /// KIR2DS4 /// KIR3DL3 /// KIR3DL3 /// KIR3DS1 (11738374_at) / RFU C1QL1 (11718748_at) / Fold change /veh C1QL1 (11718748_at) / RFU TMPRSS4 (11747572_a_at) / Fold change /veh TMPRSS4 (11747572_a_at) / RFU HAMP (11756126_x_at) / Fold change /veh HAMP (11756126_x_at) / RFU RNFT2 (11725882_a_at) / Fold change /veh RNFT2 (11725882_a_at) / RFU NR4A2 (11747474_a_at) / Fold change /veh NR4A2 (11747474_a_at) / RFU ABCC12 (11746883_a_at) / Fold change /veh ABCC12 (11746883_a_at) / RFU TMEM136 (11760407_x_at) / Fold change /veh TMEM136 (11760407_x_at) / RFU CLDN22 /// WWC2 (11732394_at) / Fold change /veh CLDN22 /// WWC2 (11732394_at) / RFU HLA-DPB1 (11760878_x_at) / Fold change /veh HLA-DPB1 (11760878_x_at) / RFU SPINT1 (11716480_a_at) / Fold change /veh SPINT1 (11716480_a_at) / RFU GAP43 (11754022_s_at) / Fold change /veh GAP43 (11754022_s_at) / RFU A4GNT (11735810_at) / Fold change /veh A4GNT (11735810_at) / RFU PRB3 (11715151_x_at) / Fold change /veh PRB3 (11715151_x_at) / RFU TUBB4B (11761932_at) / Fold change /veh TUBB4B (11761932_at) / RFU CAPN14 (11732068_a_at) / Fold change /veh CAPN14 (11732068_a_at) / RFU TMCC2 (11721928_a_at) / Fold change /veh TMCC2 (11721928_a_at) / RFU IRGQ (11745062_a_at) / Fold change /veh IRGQ (11745062_a_at) / RFU FAM174B (11720279_a_at) / Fold change /veh FAM174B (11720279_a_at) / RFU TMPRSS4 (11748680_a_at) / Fold change /veh TMPRSS4 (11748680_a_at) / RFU FAM212B (11763350_a_at) / Fold change /veh FAM212B (11763350_a_at) / RFU PLEKHG5 (11743358_a_at) / Fold change /veh PLEKHG5 (11743358_a_at) / RFU ZSCAN30 (11745921_a_at) / Fold change /veh ZSCAN30 (11745921_a_at) / RFU CMKLR1 (11741424_a_at) / Fold change /veh CMKLR1 (11741424_a_at) / RFU LOC101060620 /// MAPK8IP1 (11723275_at) / Fold change /veh LOC101060620 /// MAPK8IP1 (11723275_at) / RFU SPTSSB (11747773_x_at) / Fold change /veh SPTSSB (11747773_x_at) / RFU PRSS12 (11739890_at) / Fold change /veh PRSS12 (11739890_at) / RFU BIN1 (11741810_x_at) / Fold change /veh BIN1 (11741810_x_at) / RFU WNT11 (11732464_a_at) / Fold change /veh WNT11 (11732464_a_at) / RFU C10orf10 (11716521_a_at) / Fold change /veh C10orf10 (11716521_a_at) / RFU C5orf56 (11738089_at) / Fold change /veh C5orf56 (11738089_at) / RFU CYB561 (11721691_x_at) / Fold change /veh CYB561 (11721691_x_at) / RFU ANKRD19P (11752326_a_at) / Fold change /veh ANKRD19P (11752326_a_at) / RFU OR2T12 /// OR2T33 /// OR2T8 (11738714_s_at) / Fold change /veh OR2T12 /// OR2T33 /// OR2T8 (11738714_s_at) / RFU VCAN (11748164_a_at) / Fold change /veh VCAN (11748164_a_at) / RFU JSRP1 (11732532_at) / Fold change /veh JSRP1 (11732532_at) / RFU KRTAP10-11 (11738290_x_at) / Fold change /veh KRTAP10-11 (11738290_x_at) / RFU MYO3A (11730013_a_at) / Fold change /veh MYO3A (11730013_a_at) / RFU EBF3 (11725865_a_at) / Fold change /veh EBF3 (11725865_a_at) / RFU CAMK2N1 (11719241_x_at) / Fold change /veh CAMK2N1 (11719241_x_at) / RFU C5orf56 (11738088_a_at) / Fold change /veh C5orf56 (11738088_a_at) / RFU OLFML3 (11715873_a_at) / Fold change /veh OLFML3 (11715873_a_at) / RFU LOC100653217 /// NTM (11731650_a_at) / Fold change /veh LOC100653217 /// NTM (11731650_a_at) / RFU MAPK11 (11762145_a_at) / Fold change /veh MAPK11 (11762145_a_at) / RFU FIZ1 (11724087_x_at) / Fold change /veh FIZ1 (11724087_x_at) / RFU OASL (11726364_x_at) / Fold change /veh OASL (11726364_x_at) / RFU SOX15 (11748057_x_at) / Fold change /veh SOX15 (11748057_x_at) / RFU CD79A (11719716_a_at) / Fold change /veh CD79A (11719716_a_at) / RFU HIST1H1D (11736915_at) / Fold change /veh HIST1H1D (11736915_at) / RFU CASKIN2 (11723855_a_at) / Fold change /veh CASKIN2 (11723855_a_at) / RFU LOC730098 (11760151_x_at) / Fold change /veh LOC730098 (11760151_x_at) / RFU OR4N2 (11742367_at) / Fold change /veh OR4N2 (11742367_at) / RFU PRRT2 (11749266_a_at) / Fold change /veh PRRT2 (11749266_a_at) / RFU SNX32 (11753110_a_at) / Fold change /veh SNX32 (11753110_a_at) / RFU CDHR5 (11726645_a_at) / Fold change /veh CDHR5 (11726645_a_at) / RFU RCAN1 (11760418_a_at) / Fold change /veh RCAN1 (11760418_a_at) / RFU FAM167A (11723789_a_at) / Fold change /veh FAM167A (11723789_a_at) / RFU FAM26E (11764081_at) / Fold change /veh FAM26E (11764081_at) / RFU ISYNA1 (11749810_s_at) / Fold change /veh ISYNA1 (11749810_s_at) / RFU ACY1 (11761880_at) / Fold change /veh ACY1 (11761880_at) / RFU 11764098_at / Fold change /veh 11764098_at / RFU SAMD14 (11745864_x_at) / Fold change /veh SAMD14 (11745864_x_at) / RFU NPB (11741838_a_at) / Fold change /veh NPB (11741838_a_at) / RFU TMPRSS6 (11731388_a_at) / Fold change /veh TMPRSS6 (11731388_a_at) / RFU KRTAP10-2 (11738614_at) / Fold change /veh KRTAP10-2 (11738614_at) / RFU ARHGAP8 /// PRR5-ARHGAP8 (11727945_x_at) / Fold change /veh ARHGAP8 /// PRR5-ARHGAP8 (11727945_x_at) / RFU KRTAP5-7 /// NADSYN1 (11734609_at) / Fold change /veh KRTAP5-7 /// NADSYN1 (11734609_at) / RFU RASL12 (11751679_a_at) / Fold change /veh RASL12 (11751679_a_at) / RFU CDKN2B (11736163_a_at) / Fold change /veh CDKN2B (11736163_a_at) / RFU PRF1 (11729649_at) / Fold change /veh PRF1 (11729649_at) / RFU, ZNF638 /// ZNF638-IT1 / Fold change vs veh, ZNF638 /// ZNF638-IT1 / RFU, PANK3 / Fold change vs veh, PANK3 / RFU, SH3YL1 / Fold change vs veh, SH3YL1 / RFU, ZEB2 / Fold change vs veh, ZEB2 / RFU, NRIP1 / Fold change vs veh, NRIP1 / RFU, PTTG1IP / Fold change vs veh, PTTG1IP / RFU, CAPN2 / Fold change vs veh, CAPN2 / RFU, MED14 / Fold change vs veh, MED14 / RFU, SNORA58 / Fold change vs veh, SNORA58 / RFU, C1orf63 / Fold change vs veh, C1orf63 / RFU, LRRFIP1 / Fold change vs veh, LRRFIP1 / RFU, NDUFAF7 / Fold change vs veh, NDUFAF7 / RFU, SLC12A2 / Fold change vs veh, SLC12A2 / RFU, IBTK / Fold change vs veh, IBTK / RFU, ESF1 / Fold change vs veh, ESF1 / Fold change vs veh, TMEM50B / RFU, TAOK1 / Fold change vs veh, TAOK1 / RFU, ACBD3 / Fold change vs veh, ACBD3 / RFU, TMA16 / Fold change vs veh, TMA16 / RFU, RWDD3 / Fold change vs veh, RWDD3 / RFU, BCAT1 / Fold change vs veh, BCAT1 / RFU, EDEM3 / Fold change vs veh, EDEM3 / RFU, TMEM33 / Fold change vs veh, TMEM33 / RFU, WDR75 / Fold change vs veh, WDR75 / RFU, AHCTF1 / Fold change vs veh, AHCTF1 / RFU, TFRC / Fold change vs veh, TFRC / RFU, ZDHHC17 / Fold change vs veh, ZDHHC17 / RFU, NOM1 / Fold change vs veh, NOM1 / RFU, ARL8B / Fold change vs veh, ARL8B / RFU, ZBTB11 / Fold change vs veh, ZBTB11 / RFU, TAMM41 / Fold change vs veh, TAMM41 / RFU, KIAA1704 /// LOC100996395 / Fold change vs veh, KIAA1704 /// LOC100996395 / RFU, ING1 / Fold change vs veh, ING1 / RFU, TRMT61B / Fold change vs veh, TRMT61B / RFU, FUBP3 / Fold change vs veh, FUBP3 / RFU, TP53 / Fold change vs veh, TP53 / RFU, TNKS2 / Fold change vs veh, TNKS2 / RFU, ZFP14 / Fold change vs veh, ZFP14 / RFU, ACTR2 / Fold change vs veh, ACTR2 / RFU, PPP3R1 / Fold change vs veh, PPP3R1 / RFU, PIK3R1 / Fold change vs veh, PIK3R1 / RFU, HNRNPA1 / Fold change vs veh, HNRNPA1 / RFU, RNF170 / Fold change vs veh, RNF170 / RFU, ZNF28 / Fold change vs veh, ZNF28 / RFU, RNGTT / Fold change vs veh, RNGTT / RFU, OGT / Fold change vs veh, OGT / RFU, BRD1 / Fold change vs veh, BRD1 / RFU, MARS / Fold change vs veh, MARS / RFU, ZNF655 / Fold change vs veh, ZNF655 / RFU, FAHD1 / Fold change vs veh, FAHD1 / RFU, BDP1 / Fold change vs veh, BDP1 / RFU, LRRCC1 / Fold change vs veh, LRRCC1 / RFU, ARID1A / Fold change vs veh, ARID1A / RFU, ZNF146 / Fold change vs veh, ZNF146 / RFU, ZNF330 / Fold change vs veh, ZNF330 / RFU, GPN3 / Fold change vs veh, GPN3 / RFU, C9orf123 / Fold change vs veh, C9orf123 / RFU, N4BP2L2 / Fold change vs veh, N4BP2L2 / RFU, ARFIP1 / Fold change vs veh, ARFIP1 / RFU, FAM179B / Fold change vs veh, FAM179B / RFU, BCL10 / Fold change vs veh, BCL10 / RFU, UHRF1BP1L / Fold change vs veh, UHRF1BP1L / RFU, BET1 / Fold change vs veh, BET1 / RFU, CNOT2 / Fold change vs veh, CNOT2 / RFU, ZNF268 / Fold change vs veh, ZNF268 / Fold change vs veh, ZNF507 / RFU, DGCR2 / Fold change vs veh, DGCR2 / RFU, WDSUB1 / Fold change vs veh, WDSUB1 / Fold change vs veh, HSP90B1 /// MIR3652 / RFU, ADSS / Fold change vs veh, ADSS / RFU, GK / Fold change vs veh, GK / RFU, ZNF148 / Fold change vs veh, ZNF148 / RFU, TAF9 / Fold change vs veh, TAF9 / RFU, SLC1A5 / Fold change vs veh, SLC1A5 / RFU, SLMO2 / Fold change vs veh, SLMO2 / RFU, ABCC4 / Fold change vs veh, ABCC4 / RFU, LOC101060439 /// RAP1B / Fold change vs veh, LOC101060439 /// RAP1B / RFU, RFX7 / Fold change vs veh, RFX7 / RFU, GTPBP10 / Fold change vs veh, GTPBP10 / RFU, CNEP1R1 / Fold change vs veh, CNEP1R1 / RFU, BIVM-ERCC5 /// ERCC5 / Fold change vs veh, BIVM-ERCC5 /// ERCC5 / RFU, ILF3 / Fold change vs veh, ILF3 / RFU 11762660_at / Fold change /veh 11762660_at / RFU VCAN (11757783_s_at) / Fold change /veh VCAN (11757783_s_at) / RFU DDX43 (11728927_at) / Fold change /veh DDX43 (11728927_at) / RFU KRT8 (11758188_x_at) / Fold change /veh KRT8 (11758188_x_at) / RFU NKD1 (11759106_at) / Fold change /veh NKD1 (11759106_at) / RFU SRD5A1 (11742802_a_at) / Fold change /veh SRD5A1 (11742802_a_at) / RFU TPSAB1 /// TPSB2 (11721975_s_at) / Fold change /veh TPSAB1 /// TPSB2 (11721975_s_at) / RFU GSTM3 (11746129_a_at) / Fold change /veh GSTM3 (11746129_a_at) / RFU IL23R (11737362_x_at) / Fold change /veh IL23R (11737362_x_at) / RFU TMEM51 (11727254_a_at) / Fold change /veh TMEM51 (11727254_a_at) / RFU PIWIL2 (11732686_x_at) / Fold change /veh PIWIL2 (11732686_x_at) / RFU ORM1 (11744905_x_at) / Fold change /veh ORM1 (11744905_x_at) / RFU CCDC152 (11743942_at) / Fold change /veh CCDC152 (11743942_at) / RFU ECM1 (11717891_a_at) / Fold change /veh ECM1 (11717891_a_at) / RFU IL23R (11748794_a_at) / Fold change /veh IL23R (11748794_a_at) / RFU TNFAIP8L3 (11732012_x_at) / Fold change /veh TNFAIP8L3 (11732012_x_at) / RFU MBOAT4 (11741988_at) / Fold change /veh MBOAT4 (11741988_at) / RFU 11764193_at / Fold change /veh 11764193_at / RFU TMEM53 (11763286_at) / Fold change /veh TMEM53 (11763286_at) / RFU MAGEB2 (11727129_at) / Fold change /veh MAGEB2 (11727129_at) / RFU TMEM200A (11744735_a_at) / Fold change /veh TMEM200A (11744735_a_at) / RFU CCDC152 (11751479_a_at) / Fold change /veh CCDC152 (11751479_a_at) / RFU FAM211A (11726209_a_at) / Fold change /veh FAM211A (11726209_a_at) / RFU RGS16 (11746705_a_at) / Fold change /veh RGS16 (11746705_a_at) / RFU VCAN (11755009_s_at) / Fold change /veh VCAN (11755009_s_at) / RFU RHOB (11743442_s_at) / Fold change /veh RHOB (11743442_s_at) / RFU RGS16 (11720943_a_at) / Fold change /veh RGS16 (11720943_a_at) / RFU RGS16 (11720944_at) / Fold change /veh RGS16 (11720944_at) / RFU, VPS4B / Fold change vs veh, VPS4B / RFU, CREB1 / Fold change vs veh, CREB1 / RFU, DNAJC13 / Fold change vs veh, DNAJC13 / RFU, GNAQ / Fold change vs veh, GNAQ / RFU, CDK5R1 / Fold change vs veh, CDK5R1 / RFU, ZRANB3 / Fold change vs veh, ZRANB3 / RFU, CUL4A / Fold change vs veh, CUL4A / RFU, CCNY / Fold change vs veh, CCNY / RFU, UFL1 / Fold change vs veh, UFL1 / RFU, COG3 / Fold change vs veh, COG3 / RFU, DIAPH2 / Fold change vs veh, DIAPH2 / RFU, SKA2 / Fold change vs veh, SKA2 / RFU, AFF3 / Fold change vs veh, AFF3 / RFU, LMF1 / Fold change vs veh, LMF1 / RFU, IPO11 / Fold change vs veh, IPO11 / RFU, DFFB / Fold change vs veh, DFFB / RFU, FOXP1 / Fold change vs veh, FOXP1 / RFU, CARD8 / Fold change vs veh, CARD8 / RFU, STRN3 / Fold change vs veh, STRN3 / RFU, ADK / Fold change vs veh, ADK / RFU, RASSF2 / Fold change vs veh, RASSF2 / RFU, WIPF1 / Fold change vs veh, WIPF1 / RFU, LARP1B / Fold change vs veh, LARP1B / RFU, RASA1 / Fold change vs veh, RASA1 / RFU, RB1 / Fold change vs veh, RB1 / RFU, PPFIA1 / Fold change vs veh, PPFIA1 / RFU, MAT2A / Fold change vs veh, MAT2A / RFU, CCT5 / Fold change vs veh, CCT5 / RFU, WDR92 / Fold change vs veh, WDR92 / RFU, CUX1 / Fold change vs veh, CUX1 / RFU, TTC7A / Fold change vs veh, TTC7A / RFU, TMEM135 / Fold change vs veh, TMEM135 / RFU, DEPTOR / Fold change vs veh, DEPTOR / RFU, CPM / Fold change vs veh, CPM / RFU, DNAJB6 / Fold change vs veh, DNAJB6 / RFU, CACNA2D3 / Fold change vs veh, CACNA2D3 / RFU, DTX4 / Fold change vs veh, DTX4 / RFU, TFCP2 / Fold change vs veh, TFCP2 / RFU, GMCL1 /// GMCL1P1 / Fold change vs veh, GMCL1 /// GMCL1P1 / RFU, AEBP2 / Fold change vs veh, AEBP2 / RFU, SNHG1 /// SNORD22 /// SNORD25 /// SNORD26 /// SNORD27 /// SNORD28 /// SNORD29 /// SNORD31 / Fold change vs veh, SNHG1 /// SNORD22 /// SNORD25 /// SNORD26 /// SNORD27 /// SNORD28 /// SNORD29 /// SNORD31 / Fold change (Aza/veh), C12orf56 (ProbeSet 11735607_a_at) / Fold change (ACY-1035/veh), C12orf56 (ProbeSet 11735607_a_at) / Fold change (Aza/veh), FGFR1OP (ProbeSet 11751329_s_at) / Fold change (ACY-1035/veh), FGFR1OP (ProbeSet 11751329_s_at) / Fold change (Aza/veh), VPS36 (ProbeSet 11739960_a_at) / Fold change (ACY-1035/veh), VPS36 (ProbeSet 11739960_a_at) / RFU SYPL1 (11715823_x_at) / Fold change /veh SYPL1 (11715823_x_at) / RFU IGFBP7 (11715501_s_at) / Fold change /veh IGFBP7 (11715501_s_at) / RFU REEP3 (11722064_at) / Fold change /veh REEP3 (11722064_at) / RFU IGLL1 (11728026_x_at) / Fold change /veh IGLL1 (11728026_x_at): dose or concentration left out as unconfirmed
Details: MV-4-11 cells, 48 hours

Nc1ccc(-c2cccs2)cc1NC(=O)c1ccc2c(c1)cc(C1CC1)n2CCN1CCOCC1 [ACY-1035] was tested, and the “Fold change /veh FAM174B (11720279_a_at)” value was 1.09.
